This is an account of results in US6586402B1, “LH-RH peptide analogues, their uses and pharmaceutical compositions containing them” (Laboratoire Theramex, priority 1997, dated 2003).

“Also recorded” adds a separate entry of the source. Square brackets hold non-standard residues; d marks the D form. Peptide text beside a SMILES is read from it. 2Nal = N[C@@H](Cc1ccc2ccccc2c1)C(=O)O; Bta = N[C@@H](Cc1csc2ccccc12)C(=O)O; tBuAla = CC(C)(C)C[C@H](N)C(=O)O; d3Pal = N[C@H](Cc1cccnc1)C(=O)O; d4Pal = N[C@H](Cc1ccncc1)C(=O)O; pGlu = O=C1CC[C@@H](C(=O)O)N1

For this assay, the target named is T1, LH-RH receptors (Rattus norvegicus, UniProt P30969).
T1 sequence (P30969 1-327): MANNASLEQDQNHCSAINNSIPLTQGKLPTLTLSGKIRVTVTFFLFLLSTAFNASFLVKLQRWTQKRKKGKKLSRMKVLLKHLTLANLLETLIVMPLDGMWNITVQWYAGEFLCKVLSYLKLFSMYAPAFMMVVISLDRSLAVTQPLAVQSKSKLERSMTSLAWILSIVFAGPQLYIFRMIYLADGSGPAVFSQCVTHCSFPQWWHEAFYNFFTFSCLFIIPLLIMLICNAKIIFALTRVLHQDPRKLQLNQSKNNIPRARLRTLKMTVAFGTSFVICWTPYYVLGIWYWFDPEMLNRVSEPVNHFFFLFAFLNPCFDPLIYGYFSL
As to the kind of experiment: Stimulation of testosterone secretion in adult male rats after subcutaneous injection (agonist activity in vivo). Also noted: exert an agonist activity upon the LH-RH receptors in vivo; from tissue; host or cells: whole animal, adult male Sprague-Dawley rats; species or system Sprague-Dawley rats. The following applies: for Total plasma testosterone: 10 ng/kg subcutaneous in PBS, blood two hours later, male Sprague-Dawley rats; for agonistic potency in words: 10 ng/kg s.c., comment on Tables 2 and 3. Here is the method: The peptides according to the general formula (IIa) exert an agonist activity upon the LH-RH receptors in vivo, resulting in the stimulation of LH secretion by the pituitary, which, in males, stimulates the secretion of testosterone by the testis.
Two hours later, blood samples were drawn for total plasma testosterone determination by direct radioimmunoassay (Immunotech).
At this intermediate dose of 10 ng/kg, several examples with Npg^7 or Ada^7 in place of Leu^7 according to the invention were screened for agonistic activity (Tables 2 and 3). When available from Bachem (France) or Sigma (France), the corresponding standard agonist with Leu^7 was tested for comparison.

In turn, “pGlu-His-Trp-Ser-Tyr-D-Trp-Ada-Arg-Pro-Gly-NH2 [Example 30]” registered a Total plasma testosterone (Table 2, vehicle 2.7 ± 0.3) of 24.8 ± 4.1 nmol/L. `CC(C)C[C@H](NC(=O)[C@@H](C)NC(=O)[C@H](Cc1ccc(O)cc1)NC(=O)[C@H](CO)NC(=O)[C@H](Cc1c[nH]c2ccccc12)NC(=O)[C@H](Cc1c[nH]cn1)NC(=O)[C@@H]1CCC(=O)N1)C(=O)N[C@@H](CCCNC(=N)N)C(=O)N1CCC[C@H]1C(=O)NCC(N)=O` [[D-Ala^6]-LH-RH, reference compound] gave a Total plasma testosterone (Table 2, vehicle 2.7 ± 0.3) of 6.4 ± 1.9 nmol/L. As to `CCNC(=O)[C@@H]1CCCN1C(=O)[C@H](CCCNC(=N)N)NC(=O)[C@H](CC(C)(C)C)N(C)C(=O)[C@@H](CC(C)C)NC(=O)[C@H](Cc1ccc(O)cc1)NC(=O)[C@H](CO)NC(=O)[C@H](Cc1c[nH]c2ccccc12)NC(=O)[C@H](Cc1c[nH]cn1)NC(=O)[C@@H]1CCC(=O)N1` [Example 23, pGlu-His-Trp-Ser-Tyr-D-Leu-MeNpg-Arg-Pro-NEt], the “agonistic potency in words” value is reported as “very strong agonistic activity; also recorded: more potent LH-RH agonists than current therapeutic LH-RH analogues”. For the same molecule, the Total plasma testosterone (Table 3, vehicle 4.3 ± 1.2) was 49.4 ± 4.6 nmol/L. For `CC(C)(C)C[C@H](NC(=O)[C@@H](Cc1ccncc1)NC(=O)[C@H](Cc1ccc(O)cc1)NC(=O)[C@H](CO)NC(=O)[C@H](Cc1c[nH]c2ccccc12)NC(=O)[C@H](Cc1c[nH]cn1)NC(=O)[C@@H]1CCC(=O)N1)C(=O)N[C@@H](CCCNC(=N)N)C(=O)N1CCC[C@H]1C(=O)NCC(N)=O` [Example 21, pGlu-His-Trp-Ser-Tyr-D-4Pal-Npg-Arg-Pro-Gly-NH2] ([pGlu]HWSY[d4Pal][tBuAla]RPG-NH2) the same measures were “range of potency similar to that of leuprorelin or tryptorelin” and 32.4 ± 7.0 nmol/L. Take “pGlu-His-Trp-Ser-Tyr-D-Phe-Ada-Arg-Pro-NEt [Example 27]”: the “agonistic potency in words” value was “the Ada^7 replacement was more favorable than Npg^7”. This molecule returned a Total plasma testosterone (Table 2, vehicle 2.7 ± 0.3) of 28.0 ± 4.1 nmol/L.

`CCNC(=O)[C@@H]1CCCN1C(=O)[C@H](CCCNC(=N)N)NC(=O)[C@H](CC(C)C)NC(=O)[C@@H](Cc1ccccc1)NC(=O)[C@H](Cc1ccc(O)cc1)NC(=O)[C@H](CO)NC(=O)[C@H](Cc1c[nH]c2ccccc12)NC(=O)[C@H](Cc1c[nH]cn1)NC(=O)[C@@H]1CCC(=O)N1` [[D-Phe^6, Pro^9NEt]-LH-RH, reference compound] registered a Total plasma testosterone (Table 2, vehicle 2.7 ± 0.3) of 16.7 ± 4.3 nmol/L. `CCNC(=O)[C@@H]1CCCN1C(=O)[C@H](CCCNC(=N)N)NC(=O)[C@H](CC(C)(C)C)NC(=O)[C@@H](CC(C)C)NC(=O)[C@H](Cc1ccc(O)cc1)NC(=O)[C@H](CO)NC(=O)[C@H](Cc1csc2ccccc12)NC(=O)[C@H](Cc1c[nH]cn1)NC(=O)[C@@H]1CCC(=O)N1` [Example 26, pGlu-His-Bal-Ser-Tyr-D-Leu-Npg-Arg-Pro-NEt] ([pGlu]H[Bta]SY[dL][tBuAla]RP-NHEt): the Total plasma testosterone (Table 3, vehicle 4.3 ± 1.2) was 12.2 ± 2.7 nmol/L. Turning to `CC(C)(C)C[C@H](NC(=O)[C@@H](Cc1cccnc1)NC(=O)[C@H](Cc1ccc(O)cc1)NC(=O)[C@H](CO)NC(=O)[C@H](Cc1c[nH]c2ccccc12)NC(=O)[C@H](Cc1c[nH]cn1)NC(=O)[C@@H]1CCC(=O)N1)C(=O)N[C@@H](CCCNC(=N)N)C(=O)N1CCC[C@H]1C(=O)NCC(N)=O` [Example 20, pGlu-His-Trp-Ser-Tyr-D-Pal-Npg-Arg-Pro-Gly-NH2] ([pGlu]HWSY[d3Pal][tBuAla]RPG-NH2), the “agonistic potency in words” value was “range of potency similar to that of leuprorelin or tryptorelin”. Besides, the Total plasma testosterone (Table 3, vehicle 4.3 ± 1.2) amounted to 24.9 ± 5.0 nmol/L. As for `CC(C)(C)C[C@H](NC(=O)CNC(=O)[C@H](Cc1ccc(O)cc1)NC(=O)[C@H](CO)NC(=O)[C@H](Cc1c[nH]c2ccccc12)NC(=O)[C@H](Cc1c[nH]cn1)NC(=O)[C@@H]1CCC(=O)N1)C(=O)N[C@@H](CCCNC(=N)N)C(=O)N1CCC[C@H]1C(=O)NCC(N)=O` [Example 1, pGlu-His-Trp-Ser-Tyr-Gly-Npg-Arg-Pro-Gly-NH2], where the note is “FIG. 1, various doses s.c., 8 animals per point”, the “activity in stimulating testosterone secretion relative to LH-RH” value is on record as “a little more than twice as active as LH-RH”.

`CCNC(=O)[C@@H]1CCCN1C(=O)[C@H](CCCNC(=N)N)NC(=O)[C@H](CC(C)C)NC(=O)[C@@H](C)NC(=O)[C@H](Cc1ccc(O)cc1)NC(=O)[C@H](CO)NC(=O)[C@H](Cc1c[nH]c2ccccc12)NC(=O)[C@H](Cc1c[nH]cn1)NC(=O)[C@@H]1CCC(=O)N1` [[D-Ala^6, Pro^9NEt]-LH-RH, reference compound] had a Total plasma testosterone (Table 2, vehicle 2.7 ± 0.3) of 30.6 ± 7.2 nmol/L. Same read-out and setting: the same measure for “pGlu-His-Trp-Ser-Tyr-D-Leu-Ada-Arg-Pro-NEt [Example 29]”: 36.2 ± 4.5 nmol/L. For the molecule `CC(C)C[C@@H](NC(=O)[C@H](Cc1ccc(O)cc1)NC(=O)[C@H](CO)NC(=O)[C@H](Cc1c[nH]c2ccccc12)NC(=O)[C@H](Cc1c[nH]cn1)NC(=O)[C@@H]1CCC(=O)N1)C(=O)N[C@@H](CC(C)(C)C)C(=O)N[C@@H](CCCNC(=N)N)C(=O)N1CCC[C@H]1C(=O)NCC(N)=O` [Example 5, pGlu-His-Trp-Ser-Tyr-D-Leu-Npg-Arg-Pro-Gly-NH2] ([pGlu]HWSY[dL][tBuAla]RPG-NH2), the “agonistic potency in words” value is “range of potency similar to that of leuprorelin or tryptorelin”. Further, the Total plasma testosterone (Table 2, vehicle 2.7 ± 0.3) stood at 21.2 ± 6.6 nmol/L.

Regarding “pGlu-His-Trp-Ser-Tyr-D-Ala-Ada-Arg-Pro-NEt [Example 28]”, the “agonistic potency in words” value is listed as “the Ada^7 replacement was more favorable than Npg^7; also recorded: more potent LH-RH agonists than current therapeutic LH-RH analogues”. The same molecule came in with a Total plasma testosterone (Table 2, vehicle 2.7 ± 0.3) of 44.9 ± 6.0 nmol/L. With `CCNC(=O)[C@@H]1CCCN1C(=O)[C@H](CCCNC(=N)N)NC(=O)[C@H](CC(C)(C)C)NC(=O)[C@@H](CC(C)C)NC(=O)[C@H](Cc1ccc(O)cc1)NC(=O)[C@H](CO)NC(=O)[C@H](Cc1ccc2ccccc2c1)NC(=O)[C@H](Cc1c[nH]cn1)NC(=O)[C@@H]1CCC(=O)N1` [Example 25, pGlu-His-2Nal-Ser-Tyr-D-Leu-Npg-Arg-Pro-NEt] ([pGlu]H[2Nal]SY[dL][tBuAla]RP-NHEt), the “agonistic potency in words” value is “range of potency similar to that of leuprorelin or tryptorelin”. Where the note is “Table 3, vehicle 4.3 ± 1.2”, the Total plasma testosterone is 27.3 ± 6.9 nmol/L. On to `CCNC(=O)[C@@H]1CCCN1C(=O)[C@H](CCCN=C(N)N)NC(=O)[C@H](CC(C)C)NC(=O)[C@@H](Cc1c[nH]c2ccccc12)NC(=O)[C@H](Cc1ccc(O)cc1)NC(=O)[C@H](CO)NC(=O)[C@H](Cc1c[nH]c2ccccc12)NC(=O)[C@H](Cc1cnc[nH]1)NC(=O)[C@@H]1CCC(=O)N1` [Deslorelin, reference compound], for which the Total plasma testosterone (Table 2, vehicle 2.7 ± 0.3) is 11.8 ± 3.5 nmol/L. The same measure, in the same setting: under `CCNC(=O)[C@@H]1CCCN1C(=O)[C@H](CCCNC(=N)N)NC(=O)[C@H](CC(C)C)NC(=O)[C@@H](CC(C)C)NC(=O)[C@H](Cc1ccc(O)cc1)NC(=O)[C@H](CO)NC(=O)[C@H](Cc1c[nH]c2ccccc12)NC(=O)[C@H](Cc1c[nH]cn1)NC(=O)[C@@H]1CCC(=O)N1` [Leuprorelin, reference compound] stands 33.5 ± 3.5 nmol/L.
